In data set [1] the target is T1, human GABAA α5β2γ2 (Homo sapiens, UniProt P18507+P31644). Nature of the data set: biochemical.
Data set [2] addresses T2, human GABAA α3β2γ2 (Homo sapiens, UniProt P18507+P34903). Nature of the data set: biochemical.
Data set [3] concerns the target T3, human GABAA α1β2γ2 (Homo sapiens, UniProt P14867+P18507). Nature of the data set: biochemical.
Data set [4] addresses T4, human GABAA α2β2γ2 (Homo sapiens, UniProt P18507+P47869).
Data set [5] deals with T1, human GABAA α5β2γ2. The note with it: Ki α5β2γ2 / Ki α2β2γ2.
Data set [6] deals with T3, human GABAA α1β2γ2. The following applies: for Binding affinity normalized to GABAA α2 (ratio of Ki values): Ki α1β2γ2 / Ki α2β2γ2.
The target of data set [7] is T4, human GABAA α2β2γ2. The data set is described as follows: biochemical.
Data set [8] deals with native GABAA receptors from rat-brain homogenates.
The target of data set [9] is T2, human GABAA α3β2γ2. The following applies: Ki α3β2γ2 / Ki α2β2γ2.
Data set [10] concerns the target human GABAA-receptor complexes α1β2γ2, α2β2γ2, α3β2γ2, α5β2γ2.
The subject of data set [11] is PTZ and audiogenic-induced seizures. More on the design: method as in PMID 10816315. The note with it: PTZ and audiogenic-induced seizures in mice; cited from earlier work.
The target in data set [12] is T1, human GABAA α5β2γ2.
In data set [13] the target is T4, human GABAA α2β2γ2. The source holds these as a separate data set.
Data set [14] concerns the target T2, human GABAA α3β2γ2.
Data set [15] has as its system refractory epilepsy patients. More on the design: method as in PMID 3828198. The note with it: dosages giving concentrations similar to those after clobazam dosing; cited from earlier work.
The conditions of data set [16]: cited from earlier work.
For data set [17], the system named is pentylenetetrazole (PTZ)-induced seizures. More on the design: method as in PMID 17092983. The note with it: greatest diazepam dosage, cited from earlier work.
The test system of data set [18] is tonic convulsions following PTZ administration. More on the design: method as in PMID 11021797. The following applies: cited from earlier work; for percentage of mice convulsing: 3 mg/kg.

The source of these data is PMC3922815 (PLoS ONE, 2014).

Values joined by “and” are separate entries in the source; they are usually repeats but may differ in a detail not shown here. Equal entries are not always repeated. Where two headings read alike, the source gives them in different places.

T2 sequence (P34903 29-492): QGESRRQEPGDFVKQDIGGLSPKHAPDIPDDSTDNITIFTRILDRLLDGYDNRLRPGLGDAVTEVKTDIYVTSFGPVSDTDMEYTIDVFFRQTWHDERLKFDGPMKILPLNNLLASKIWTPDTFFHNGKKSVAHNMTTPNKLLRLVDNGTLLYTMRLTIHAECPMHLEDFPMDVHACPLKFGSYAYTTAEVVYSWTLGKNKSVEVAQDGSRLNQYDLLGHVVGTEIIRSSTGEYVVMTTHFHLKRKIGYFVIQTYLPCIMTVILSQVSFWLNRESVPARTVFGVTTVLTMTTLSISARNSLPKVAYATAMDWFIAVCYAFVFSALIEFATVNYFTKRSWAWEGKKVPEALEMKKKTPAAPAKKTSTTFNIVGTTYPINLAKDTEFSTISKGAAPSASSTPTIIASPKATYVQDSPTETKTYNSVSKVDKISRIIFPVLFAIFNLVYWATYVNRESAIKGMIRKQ
T2 sequence (P47870 25-512 partner limits assumed): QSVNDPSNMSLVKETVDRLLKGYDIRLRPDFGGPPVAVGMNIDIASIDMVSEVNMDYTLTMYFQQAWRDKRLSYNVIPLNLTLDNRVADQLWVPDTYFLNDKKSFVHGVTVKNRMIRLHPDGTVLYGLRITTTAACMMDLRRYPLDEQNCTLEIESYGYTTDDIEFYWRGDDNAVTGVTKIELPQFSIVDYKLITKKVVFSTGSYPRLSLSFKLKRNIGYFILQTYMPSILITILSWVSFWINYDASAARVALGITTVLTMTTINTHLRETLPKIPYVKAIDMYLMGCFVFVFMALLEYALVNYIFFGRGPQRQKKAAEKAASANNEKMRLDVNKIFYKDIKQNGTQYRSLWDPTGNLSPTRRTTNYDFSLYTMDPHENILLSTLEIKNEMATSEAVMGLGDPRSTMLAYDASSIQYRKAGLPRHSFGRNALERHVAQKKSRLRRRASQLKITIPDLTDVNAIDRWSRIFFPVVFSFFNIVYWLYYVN
T2 sequence (P18507 40-475): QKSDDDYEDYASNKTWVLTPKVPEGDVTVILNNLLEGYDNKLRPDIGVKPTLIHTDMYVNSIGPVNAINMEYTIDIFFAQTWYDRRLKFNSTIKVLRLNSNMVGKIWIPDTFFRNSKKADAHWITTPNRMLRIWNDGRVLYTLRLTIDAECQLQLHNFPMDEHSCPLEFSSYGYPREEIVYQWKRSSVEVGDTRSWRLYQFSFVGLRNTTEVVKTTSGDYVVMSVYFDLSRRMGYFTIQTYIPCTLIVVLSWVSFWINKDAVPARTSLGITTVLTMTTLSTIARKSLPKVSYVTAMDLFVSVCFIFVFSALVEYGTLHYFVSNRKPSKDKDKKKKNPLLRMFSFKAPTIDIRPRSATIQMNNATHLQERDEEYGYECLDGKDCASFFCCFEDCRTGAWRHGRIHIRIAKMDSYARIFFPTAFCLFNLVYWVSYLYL
T4 sequence (P47869 29-451): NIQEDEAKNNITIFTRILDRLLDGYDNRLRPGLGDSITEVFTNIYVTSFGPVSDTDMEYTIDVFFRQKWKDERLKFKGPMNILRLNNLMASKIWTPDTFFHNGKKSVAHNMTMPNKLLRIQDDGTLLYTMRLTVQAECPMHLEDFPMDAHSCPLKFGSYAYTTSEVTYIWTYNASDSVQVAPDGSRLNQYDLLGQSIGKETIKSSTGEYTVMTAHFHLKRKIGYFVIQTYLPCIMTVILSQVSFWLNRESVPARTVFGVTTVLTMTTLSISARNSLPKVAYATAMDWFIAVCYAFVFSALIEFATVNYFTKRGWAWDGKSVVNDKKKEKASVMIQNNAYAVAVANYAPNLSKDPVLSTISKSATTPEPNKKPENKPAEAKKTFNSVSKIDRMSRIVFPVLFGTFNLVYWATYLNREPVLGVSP
T4 sequence (P47870 25-512 partner limits assumed): as the sequence (P47870 25-512 partner limits assumed) above
T4 sequence (P18507 40-475): as the sequence (P18507 40-475) above
T3 sequence (P14867 28-456): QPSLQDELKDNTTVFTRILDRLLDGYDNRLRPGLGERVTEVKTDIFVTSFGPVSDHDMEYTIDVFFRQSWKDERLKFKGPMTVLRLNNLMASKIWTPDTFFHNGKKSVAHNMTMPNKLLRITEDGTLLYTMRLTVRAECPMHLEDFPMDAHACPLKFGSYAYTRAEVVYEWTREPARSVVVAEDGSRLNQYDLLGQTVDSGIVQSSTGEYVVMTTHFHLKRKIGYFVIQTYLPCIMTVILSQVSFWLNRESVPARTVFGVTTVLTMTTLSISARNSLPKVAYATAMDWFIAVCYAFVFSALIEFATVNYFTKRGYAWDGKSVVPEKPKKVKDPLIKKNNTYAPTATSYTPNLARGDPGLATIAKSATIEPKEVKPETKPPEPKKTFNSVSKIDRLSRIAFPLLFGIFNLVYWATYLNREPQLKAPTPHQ
T3 sequence (P47870 25-512 partner limits assumed): as the sequence (P47870 25-512 partner limits assumed) above
T3 sequence (P18507 40-475): as the sequence (P18507 40-475) above
T1 sequence (P31644 32-462): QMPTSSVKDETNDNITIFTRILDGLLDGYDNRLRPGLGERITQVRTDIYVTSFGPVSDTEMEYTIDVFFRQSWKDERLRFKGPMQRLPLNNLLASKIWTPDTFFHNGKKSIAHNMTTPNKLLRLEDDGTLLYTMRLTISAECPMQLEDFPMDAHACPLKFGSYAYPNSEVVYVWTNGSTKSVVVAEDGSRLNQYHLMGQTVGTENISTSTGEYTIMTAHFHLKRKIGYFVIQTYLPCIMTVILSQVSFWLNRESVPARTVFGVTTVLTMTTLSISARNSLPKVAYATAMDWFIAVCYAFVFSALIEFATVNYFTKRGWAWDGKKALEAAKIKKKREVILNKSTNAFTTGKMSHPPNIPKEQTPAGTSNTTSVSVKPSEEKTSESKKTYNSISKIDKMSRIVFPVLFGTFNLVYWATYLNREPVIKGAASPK
T1 sequence (P47870 25-512 partner limits assumed): as the sequence (P47870 25-512 partner limits assumed) above
T1 sequence (P18507 40-475): as the sequence (P18507 40-475) above

One may read the Ki as the equilibrium dissociation constant of an inhibitor or competing ligand from its target. Higher therefore signals a looser hold on the target. On to `CN1C(=O)CC(=O)N(c2ccccc2)c2cc(Cl)ccc21` [Clobazam], for which the Ki in data set [1] is 331 nM; in data set [2], 753 nM; in data set [3] it was 519 nM; in [7] it was 205 nM; in data set [8] it was 151 nM. For the same molecule, the “Binding affinity normalized to GABAA α2 (ratio of Ki values)” value in data set [4] is given as 1; in [5], 1.6; in [6], 2.5; in data set [9], 3.7.
With `O=C1CN=C(c2ccccc2Cl)c2cc([N+](=O)[O-])ccc2N1` [Clonazepam], the Ki in [1] is 0.78 nM; in data set [2] it was 2.24 nM; in data set [3] it was 0.65 nM; in [7], 0.72 nM; in [8], 0.263 nM and 0.26 nM; in data set [10] it was 0.65 to 2.2 nM. In addition, the “Binding affinity normalized to GABAA α2 (ratio of Ki values)” value in [4] is reported as 1; in [5], 1.1; in data set [6] it was 0.9.
On to `Cn1ncnc1COc1nn2c(-c3cc(F)ccc3F)nnc2cc1C(C)(C)C` [L-838,417], for which the anticonvulsant activity entry in data set [11] is listed as “retains anticonvulsant activity”.
By half-life is commonly meant the time in which the quantity being followed falls by half. Consider `O=C1CC(=O)N(c2ccccc2)c2cc(Cl)ccc2N1` [N-desmethylclobazam], for which the Ki in [12] is 295 nM and 292 nM; in data set [13] it was 148 nM and 147 nM; in data set [14], 661 nM and 668 nM; in data set [6], 631 nM and 634 nM; in data set [8], 132 nM and 133 nM. The “Binding affinity normalized to GABAA α2 (ratio of Ki values)” value in data set [4] stood at 1; in [5], 2.0; in data set [6], 4.3; in [9], 4.6. In data set [15], the patients responding favorably was 8 of 9. For the same molecule, the half-life in data set [16] (humans) is on record as 79 h. Moreover, the “concentration of N-CLB relative to the parent compound” value in [16] (prolonged clinical use of CLB) is listed as “more than 2 fold”.
Take `Cc1ccc(-c2nc3ccc(C)cn3c2CC(=O)N(C)C)cc1` [Zolpidem]: the Ki in data set [1] is 5430 nM; in [10] it was 30 to 5430 nM.
What is called Kd is the free concentration of one partner at which half of the binding sites on the other are occupied at equilibrium, for simple one-to-one binding. On to `CN1C(=O)CN=C(c2ccccc2F)c2cc([N+](=O)[O-])ccc21` [^3H-flunitrazepam], for which, in data set [8] (read-out: Kd (tracer equilibrium dissociation constant), saturation binding, rat-brain homogenates), the Kd turned out to be 1.5 ± 0.2 nM.
On to `CN1C(=O)CN=C(c2ccccc2)c2cc(Cl)ccc21` [diazepam], for which, in [17] (wild-type mice, reversed from 6), the “seizure level on the Racine scale” value is 1. In addition, the “seizure scoring on the Racine scale” value in data set [17] (α2(H101R) mice) is on record as “approximately 3.5”. Further, the “percentage of mice convulsing” value is on record as “approximately 20%” in data set [18] (wild-type mice) and “approximately 50%” in data set [18] (α2(H101R) mice). The “protection from tonic convulsions” value in data set [18] (10 and 30 mg/kg, both wild-type and α2(H101R) mice) was 100%.
